Laboratory results taken from article PMC12155845, “Antimicrobial Activity of Copper(II), Nickel(II) and Zinc(II) Complexes with Semicarbazone and Thiosemicarbazone Ligands Derived from Substituted Salicylaldehydes” (Molecules, 2025).
Entries after “also recorded” stand apart in the source; their conditions may differ. Like-named read-outs stand apart in the source and are kept apart here.

Assays:
[1] = system: pmaxGFP plasmid DNA; assay: In vitro DNA cleavage/mobility shift assay (agarose gel electrophoresis); type: biochemical; settings: for Plasmid DNA cleavage in presence of H2O2 (in words): 100 µM of sample, 200 ng plasmid DNA, 10 mM H2O2, 37 °C, 2 h
Method: The nuclease activity of the metal complexes was investigated by means of gel electrophoresis after incubating the reaction mixtures (100 µM of sample and 200 ng of plasmid DNA) at 37 °C for 2 h. […] Thus, the assays with the metal complexes were performed in the absence and presence of H2O2 at 10 mM to check whether the DNA cleavage and damage take place through a hydrolytic or an oxidative mechanism.
Studies of the interactions between the metal compounds and plasmid DNA were carried out by agarose gel electrophoresis. Thus, 200 ng of pmaxGFP plasmid, 3527 bps, (Lonza, Basel, Switzerland) were incubated with the metal compounds at 100 μM in the absence or presence of 10 mM of H2O2 in Tris-HCl buffer (NaCl 50 mM, Tris-HCl 5 mM, pH 7.20). The mixture was incubated at 37 °C for 2 h, then the reactions were quenched by adding 5 μL of the loading buffer solution and analyzed by 1% agarose gel electrophoresis.

[2] = system: human red blood cells (hRBCs); assay: Hemolytic activity assay; type: cell-based
Method: The hemolytic activity of the metal complexes was evaluated as the amount of hemoglobin released by the disruption of human red blood cells (hRBCs). Briefly, a suspension of hRBCs (4% w/v in PBS) was prepared from the peripheral blood of anonymous blood donors available for research purposes. […] Then, the supernatants were spectrophotometrically evaluated at OD405nm. Untreated hRBCs (in PBS) and hRBCs incubated with 1% Triton X-100 were employed as negative and positive controls, respectively. The hemolysis percentage was calculated as [OD405nm (sample) − OD405nm (negative control)]/[OD405nm (positive control) − OD405nm (negative control)] × 100. Minimal hemolytic concentrations (MHCs) were defined as the compound concentration causing 10% hemolysis.

[3] = system: Staphylococcus aureus ATCC 25923; assay: Microdilution antimicrobial assay (CLSI), S. aureus; type: cell-based; settings: for Antimicrobial activity against S. aureus (in words): up to 100 μM; for Percentage values of microbial growth, S. aureus: compound at 100 μM, mean and standard deviation, 24 h, relative to positive controls; for Microbial growth, S. aureus (Table S1): ligand at 100 μM, mean values and standard deviations
Method: (§1) Reference strains of Staphylococcus aureus (ATCC 25923), Escherichia coli (ATCC 25922) and Candida albicans (ATCC 10231) were used in this study as model systems. These laboratory strains were purchased from the American Type Culture Collection (ATCC) (Manassas, VA, USA). […] The antimicrobial properties of the metal complexes were determined by a previously established microdilution method in agreement with the Clinical and Laboratory Standard Institute (CLSI) guidelines. […] The metal complexes were two-fold serially diluted and tested in the range of 100-0.19 μM. Positive controls (in regular media), negative controls (only compounds), solvent controls (DMSO dilutions) and the reference drugs were included in the tests. The plate was incubated at 37 °C for 24 h, and the OD630nm was measured.

[4] = system: Candida albicans ATCC 10231; assay: Microdilution antifungal assay (CLSI), C. albicans; type: cell-based; settings: for Percentage values of microbial growth, C. albicans: mean and standard deviation
Text: Reference strains of Staphylococcus aureus (ATCC 25923), Escherichia coli (ATCC 25922) and Candida albicans (ATCC 10231) were used in this study as model systems. These laboratory strains were purchased from the American Type Culture Collection (ATCC) (Manassas, VA, USA). The cultures were routinely grown on 5% blood agar plates or Sabouraud Dextrose agar plates (Biolife Italiana S.r.l., Milan, Italy) and used freshly in the assays.
The antimicrobial properties of the metal complexes were determined by a previously established microdilution method in agreement with the Clinical and Laboratory Standard Institute (CLSI) guidelines. […] The metal complexes were two-fold serially diluted and tested in the range of 100–0.19 µM. Positive controls (in regular media), negative controls (only compounds), solvent controls (DMSO dilutions) and the reference drugs were included in the tests. The plate was incubated at 37 °C for 24 h, and the OD630nm was measured.

[5] = system: Escherichia coli ATCC 25922; assay: Microdilution antimicrobial assay (CLSI), E. coli; type: cell-based; settings: for Percentage values of microbial growth, E. coli: mean and standard deviation, 24 h; for Microbial growth, E. coli (Table S1): ligand at 100 μM, mean values and standard deviations
Method: as §1

[6] = system: HEL 299 fibroblasts (ATCC-CCL-137); assay: Cell viability and proliferation assay (WST8/CCK-8); type: cell-based, human; settings: for Percentage values of cell viability, HEL 299: compound at 100 μM, mean and standard deviation, relative to untreated controls; for Cell proliferation, HEL 299 (Table S1): ligand at 100 μM, mean values and standard deviations
Method: HEL 299 cells, obtained from the American Type Culture Collection (ATCC-CCL-137), were selected to investigate the effect of the metal complexes on non-malignant human fibroblasts. Briefly, cells were cultured in Eagle’s Minimum Essential Medium (EMEM) supplemented with 10% fetal bovine serum (FBS), 100 U/mL penicillin and 100 µg/mL streptomycin at 37 °C with 5% CO2. For the biological assays, cells were grown in 96-well plates at 10^4 cells/well. After 24 h of incubation at 37 °C, the monolayer was treated with 100 µL of medium containing the 2-fold serial dilutions of the compounds in the range 100–0.19 µM. Cell viability was assessed by a colorimetric WST8-based assay according to the manufacturer’s instructions (CCK-8, Cell Counting Kit-8, Dojindo Molecular Technologies, Rockville, MD, USA) by measuring the OD at 450 nm. Data are expressed as the percentage of cell viability relative to the untreated controls. The CC50 was obtained on the corresponding dose–response curves generated as previously reported for IC50 values.

[7] = compound at 100 μM, 1 h at 37 °C
[8] = mean values and 95% Confidence Interval, dose–response
[9] = ligand at 100 μM, mean values and standard deviations

Molecule | Percentage values of hemolytic activity, hRBCs [2, 7] | Percentage values of microbial growth, C. albicans ([4]; compound at 100 μM, 24 h) | Percentage values of microbial growth, E. coli ([5]; compound at 100 μM) | Percentage values of cell viability, HEL 299 [6] | Percentage values of microbial growth, S. aureus [3] | Microbial growth, S. aureus (Table S1) [3] | Microbial growth, C. albicans (Table S1) [4, 9] | Microbial growth, E. coli (Table S1) [5] | Cell proliferation, HEL 299 (Table S1) [6] | also measured
N.N.[Cl][Pt][Cl] [CP, cisplatin, reference compound] |  |  |  |  |  |  |  |  |  | Binding interaction with plasmid DNA, electrophoresis mobility (in words) ([1]; cisplatin at 500, 100 and 50, 37°C for 2 h, pmaxGFP): cause a shift of the electrophoresis mobility
CCNC(=S)N/N=C/c1cccc(OC)c1[O-].[Cl-].[Cu+2] [Compound 4] | <5% | 15.6 ± 5.5% | 110.5 ± 4.8% | 9.1 ± 1.1% |  |  |  |  |  | IC50 [3, 8]: 3.5 µM; Antimicrobial activity against S. aureus (in words) [3]: completely inhibited; also recorded: good activity; also recorded: micromolar activity; IC50 [4, 8]: 54.8 µM; Antimicrobial activity against C. albicans (in words) ([4]; up to 100 μM): slightly interfered; CC50 [6, 8]: 1.4 µM; Plasmid DNA cleavage in presence of H2O2 (in words) [1]: extensive damage to the plasmid DNA
COc1cccc(/C=N/NC(N)=O)c1[O-].[Cl-].[Cu+2] [Compound 5, [Cu(HL3)Cl]∙0.5H2O∙0.5CH3OH] | <5% | 77.8 ± 2.0% | 55.8 ± 0.5% | 20.3 ± 0.6% | 83.6 ± 1.4% |  |  |  |  | Antimicrobial activity against S. aureus (in words) [3]: lack of antibacterial activity; Reduction of E. coli growth compared to the untreated cells ([5]; compound at 100 μM): 44.2%; Antimicrobial activity against E. coli (in words) ([5]; up to 100 μM): lack of antibacterial activity; Plasmid DNA cleavage in presence of H2O2 (in words) [1]: degrade plasmid DNA
COc1cc(S(=O)(=O)[O-])cc(/C=N/NC(N)=S)c1[O-].[Cl-].[Cu+2].[Na+] [Compound 8] | <5% | 89.9 ± 5.3% | 104.1 ± 9.3% | 90.4 ± 0.6% | 106.3 ± 1.6% |  |  |  |  | 
CCNC(=S)N/N=C/c1cc(S(=O)(=O)[O-])cc(OC)c1[O-].[Cl-].[Cu+2].[Na+] [Compound 9] | <5% | 91.4 ± 2.5% | 96.6 ± 1.1% | 85.8 ± 1.7% | 104.8 ± 0.7% |  |  |  |  | 
COc1cc(S(=O)(=O)[O-])cc(/C=N/NC(N)=O)c1[O-].[Cl-].[Cu+2].[Na+] [Compound 10, [NaCu(HL6)Cl]] | <5% | 71.6 ± 1.3% | 99.8 ± 1.8% | 63.5 ± 3.8% | 97.8 ± 1.4% |  |  |  |  | 
CCCCCCCC(=O)N/N=C/c1cc(S(=O)(=O)[O-])cc(OC)c1[O-].[Cl-].[Cu+2].[Na+] [Compound 13, [NaCu(HL7)Cl]] | <5% | 81.7 ± 5.4% | 105.2 ± 2.0% | 88.7 ± 0.9% | 99.8 ± 3.6% |  |  |  |  | Plasmid DNA cleavage in presence of H2O2 (in words) [1]: only exception
CCNC(=S)N/N=C/c1cccc(OC)c1O [Compound H2L2] |  |  |  |  |  | 96.8 ± 3.5 | 83.3 ± 14.4 | 92.8 ± 3.1 | 97.2 ± 13.2 | 
OC(Cn1cncn1)(Cn1cncn1)c1ccc(F)cc1F [FCZ, fluconazole, reference compound] |  |  |  |  |  |  |  |  |  | Microbial growth, C. albicans (Table S1) ([4]; fluconazole): 10.0 ± 0.6; Percentage values of microbial growth, C. albicans ([4]; fluconazole at 1.6 μM): 10.0 ± 0.6%
COc1cc(S(=O)(=O)[O-])cc(/C=N/NC(N)=S)c1O.[Na+] [NaH2L4] |  |  |  |  |  | 99.0 ± 3.5 | 95.6 ± 3.2 | 100.2 ± 1.0 | 85.6 ± 10.2 | 
CCNC(=S)N/N=C/c1cc(S(=O)(=O)[O-])cc(OC)c1O.[Na+] [NaH2L5] |  |  |  |  |  | 98.4 ± 3.0 | 95.6 ± 7.5 | 107.4 ± 0.9 | 90.0 ± 4.9 | 
COc1cc(S(=O)(=O)[O-])cc(/C=N/NC(N)=O)c1O.[Na+] [NaH2L6] |  |  |  |  |  | 86.5 ± 1.9 | 85.3 ± 1.6 | 97.1 ± 0.7 | 90.3 ± 0.8 | 
CCCCCCCC(=O)N/N=C/c1cc(S(=O)(=O)[O-])cc(OC)c1O.[Na+] [NaH2L7] |  |  |  |  |  | 102.2 ± 1.9 | 83.2 ± 2.7 | 101.9 ± 1.3 | 87.6 ± 4.9 | 
Triton X-100 [reference compound] |  |  |  |  |  |  |  |  |  | Percentage values of hemolytic activity, hRBCs [2]: 100 ± 2.6%
